# PubChem BioAssay AID1117286 (Broad Institute, 2014)
# Records with an inconclusive call do not appear. Calls of active or inactive are those of the source.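 How the source made its calls: active means every test run gives a falling-signal AC50 no higher than twice the top tested dose; inconclusive means runs disagree, or a flat partial drop, or a poor fit; inactive means all runs inactive, including rising signal.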
# Biological target: Endoplasmic reticulum aminopeptidase 2 (Homo sapiens) (UniProt Q6P179)
# Sequence (Q6P179 whole entry, looked up): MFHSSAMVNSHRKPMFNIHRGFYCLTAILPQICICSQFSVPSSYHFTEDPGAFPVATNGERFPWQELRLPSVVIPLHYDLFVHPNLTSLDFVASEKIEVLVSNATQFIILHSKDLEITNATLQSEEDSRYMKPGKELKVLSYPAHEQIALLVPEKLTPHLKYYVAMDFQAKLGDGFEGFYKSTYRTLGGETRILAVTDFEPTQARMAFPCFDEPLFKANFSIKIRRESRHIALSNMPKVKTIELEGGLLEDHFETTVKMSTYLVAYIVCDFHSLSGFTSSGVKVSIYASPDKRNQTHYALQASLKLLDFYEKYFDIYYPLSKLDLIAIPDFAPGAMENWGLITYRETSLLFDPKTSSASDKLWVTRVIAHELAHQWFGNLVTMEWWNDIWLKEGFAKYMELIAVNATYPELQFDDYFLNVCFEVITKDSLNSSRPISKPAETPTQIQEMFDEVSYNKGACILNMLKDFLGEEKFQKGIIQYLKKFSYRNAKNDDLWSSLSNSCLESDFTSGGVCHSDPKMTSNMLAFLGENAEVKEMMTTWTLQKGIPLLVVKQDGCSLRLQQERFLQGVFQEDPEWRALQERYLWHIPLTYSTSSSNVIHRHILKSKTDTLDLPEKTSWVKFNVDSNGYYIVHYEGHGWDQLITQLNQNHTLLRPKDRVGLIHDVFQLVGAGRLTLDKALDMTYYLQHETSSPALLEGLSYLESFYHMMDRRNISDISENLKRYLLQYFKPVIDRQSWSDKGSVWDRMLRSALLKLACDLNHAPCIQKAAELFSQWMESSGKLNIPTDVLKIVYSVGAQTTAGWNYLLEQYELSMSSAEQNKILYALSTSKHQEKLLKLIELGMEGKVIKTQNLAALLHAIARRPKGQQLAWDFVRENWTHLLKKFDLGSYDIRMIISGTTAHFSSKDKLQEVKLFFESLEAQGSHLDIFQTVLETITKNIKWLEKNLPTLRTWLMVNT
# Assay: ERAP2 aminopeptidase inhibitors, dose response, selectivity assay for selective ERAP1 modulator project, biochemical, plate reader, dry powder samples (AID 1117286)
# Settings: Recombinant ERAP2, Arg-AMC cleavage fluorescence, 1 h
"activity change, negative = inhibition (at 50 µM (top of the series))",SMILES,further results
inactive,COc1ccc(C(=O)O)cc1S(=O)(=O)Nc1cc(C)ccc1N1CCCCC1,
inactive,COc1ccc(C(=O)Nc2cc(C)ccc2N2CCCCC2)cc1S(=O)(=O)O,
inactive,NC(=NCCc1c[nH]c2ccccc12)NS(=O)(=O)c1cc(F)ccc1F,
inactive,CC(=O)N1CCN(C(=O)C2(NC(=O)NCCc3ccccc3)CCCCC2)CC1,
inactive,COc1ccc(C(=O)O)cc1S(=O)(=O)Nc1ccccc1N1CCCCC1,
inactive,CC(=O)N1CCN(C(=O)C2(NC(=O)Nc3ccccc3C(F)(F)F)CCCCC2)CC1,
inactive,CC(=O)N1CCN(C(=O)C2(NC(=O)Nc3ccccc3)CCCC2)CC1,
inactive,CC(=O)N1CCN(C(=O)C2(NC(=O)Nc3cccc(F)c3)CCCCC2)CC1,
inactive,COc1ccc(C(=O)O)cc1S(=O)(=O)Nc1cc(C(F)(F)F)ccc1N(C)C,
inactive,Cc1ccc(NC(=O)NC2(C(=O)N3CCN(c4ccccc4)CC3)CCCCC2)cc1,
inactive,CC(=O)N1CCN(C(=O)C2(NC(=O)Nc3ccc(F)cc3)CCCCC2)CC1,
inactive,COc1ccc(NC(=O)NC2(C(=O)N3CCN(C(C)=O)CC3)CCCCC2)cc1,
inactive,O=C(Nc1cc(C(F)(F)F)ccc1N1CCCCC1)c1ccc(S(=O)(=O)O)cc1,
inactive,COc1ccc(C(=O)Nc2cccc(C(F)(F)F)c2)cc1S(=O)(=O)O,
inactive,O=S(=O)(Nc1cc(C(F)(F)F)ccc1N1CCCCC1)c1ccc(-c2ccccc2)cc1,
inactive,CC(=O)N1CCN(C(=O)C2(NC(=O)Nc3ccccc3F)CCCCC2)CC1,
inactive,CC(=O)N1CCN(C(=O)C(C)(C)NC(=O)Nc2ccc(C)cc2)CC1,
inactive,COc1ccc(C(=O)O)cc1S(=O)(=O)Nc1cc(C(F)(F)F)ccc1N1CCCCC1,
inactive,CC(=O)N1CCN(C(=O)C2(NC(=O)Nc3ccc(Cl)cc3)CCCCC2)CC1,
inactive,Cc1ccc(NC(=O)NC2(C(=O)N3CCNCC3)CCCCC2)cc1,
inactive,CC(=O)N1CCN(C(=O)C2(NC(=O)Nc3ccc(F)cc3)CCCC2)CC1,
inactive,CC(=O)N1CCN(C(=O)C2(NC(=O)NC(C)(C)C)CCCCC2)CC1,
inactive,CC(=O)N1CCN(C(=O)CNC(=O)Nc2ccc(C)cc2)CC1,
inactive,Cn1cnc(S(=O)(=O)Nc2cc(C(F)(F)F)ccc2N2CCCCC2)c1,
inactive,COc1ccc(C(=O)O)cc1S(=O)(=O)Nc1cc(F)ccc1N1CCCCC1,
inactive,O=S(=O)(Nc1cc(C(F)(F)F)ccc1N1CCCCC1)c1ccccc1,

"activity change, negative = inhibition (at 50 µM (top of the series))",SMILES,further results
inactive,COc1cccc(NC(=O)NC2(C(=O)N3CCN(C(C)=O)CC3)CCCCC2)c1,
,COc1ccc(C(=O)Nc2cc(C(F)(F)F)ccc2N2CCCCC2)cc1S(=O)(=O)O,AC50: > 100 µM (inactive)
inactive,O=S(=O)(Nc1cc(C(F)(F)F)ccc1N1CCCCC1)c1ccc(Br)cc1,
inactive,O=[N+]([O-])c1cccc(S(=O)(=O)Nc2cc(C(F)(F)F)ccc2N2CCCCC2)c1,
,COc1ccc(C2=NN(c3ccc(C(=O)O)cc3)C(c3ccc(OC)c(OC)c3)C2)cc1 (configuration not stated),"activity change, negative = inhibition (at 26 µM (top of the series)): inactive"
inactive,O=[N+]([O-])c1ccc(S(=O)(=O)Nc2cc(C(F)(F)F)ccc2N2CCCCC2)c([N+](=O)[O-])c1,
inactive,O=S(=O)(Nc1cc(C(F)(F)F)ccc1N1CCCCC1)c1cc(Cl)cc(Cl)c1,
inactive,COc1ccc(C(=O)O)cc1S(=O)(=O)Nc1cc(C(F)(F)F)ccc1N1CCOCC1,
inactive,COc1ccc(C(=O)Nc2ccccc2N2CCCCC2)cc1S(=O)(=O)O,
inactive,CC(=O)N1CCN(C(=O)C2(NC(=O)Nc3ccc(C(C)C)cc3)CCCCC2)CC1,
inactive,CC(=O)N1CCN(C(=O)C2(NC(=O)Nc3ccc(C)cc3)CCCCC2)CC1,
inactive,COc1ccc(C(=O)Nc2cc(F)ccc2N2CCCCC2)cc1S(=O)(=O)O,
inactive,O=S(=O)(Nc1cc(C(F)(F)F)ccc1N1CCCCC1)c1ccc(F)cc1,
inactive,CC(=O)N1CCN(C(=O)C2(NC(=O)Nc3ccccc3)CCCCC2)CC1,
inactive,COc1ccc(S(=O)(=O)Nc2cc(C(F)(F)F)ccc2N2CCCCC2)cc1,
inactive,COc1ccc(C(=O)Nc2cc(C(F)(F)F)ccc2N2CCCC2)cc1S(=O)(=O)O,
inactive,CC(=O)N1CCN(C(=O)C2(NC(=O)Nc3cccc(C(F)(F)F)c3)CCCCC2)CC1,
inactive,CC(=O)N1CCN(C(=O)C2(NC(=O)Nc3ccc(C(C)C)cc3)CCCC2)CC1,
inactive,CC(=O)N1CCN(C(=O)C2CCCN2C(=O)Nc2ccc(C)cc2)CC1 (configuration not stated),
inactive,O=S(=O)(Nc1cc(C(F)(F)F)ccc1N1CCCCC1)c1ccc(C(F)(F)F)cc1,
inactive,CC(=O)N1CCN(C(=O)C2(NC(=O)Nc3ccc(C(F)(F)F)cc3)CCCC2)CC1,
,CC(=O)N1CCN(C(=O)[C@@H]2CCN2C(=O)Nc2ccc(C)cc2)CC1,AC50: > 100 µM (inactive)
inactive,N#Cc1ccc(S(=O)(=O)Nc2cc(C(F)(F)F)ccc2N2CCCCC2)cc1,
inactive,Cc1ccc(NC(=O)NC2(C(=O)N3CCOCC3)CCCCC2)cc1,
inactive,O=S(=O)(Nc1cc(C(F)(F)F)ccc1N1CCCCC1)c1ccc(Cl)cc1,
inactive,Cc1ccccc1S(=O)(=O)Nc1cc(C(F)(F)F)ccc1N1CCCCC1,
